Test results as given in US6358921B1, “Antimicrobial peptide compositions and method” (priority 1996, dated 2002).
pIC50: −log10 of the molar value. Like-named read-outs stand apart in the source and are kept apart here. Where a SMILES comes first, the peptide text is derived from it. [ ]: non-standard residue; d: D form. Orn = NCCC[C@H](N)C(=O)O

Columns and labels:
P. aeruginosa H187 = format: cell-based, Pseudomonas aeruginosa; details: for Antibiotic activity (Table 11, ring analogs): P. aeruginosa H187, unit from Table 10; for Minimum Inhibitory Concentration (activity): H187
Procedure, shortened: (§1)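 MIC read-out, μg/ml, lowest peptide concentration with no growth after overnight incubation at 37 °C in LB liquid broth. Inoculum 5×10^5 CFU/mL from overnight cultures. Therapeutic index = concentration giving complete blood-cell lysis at 4 h divided by MIC.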

yeast = assay: Antibiotic activity, yeast; format: cell-based; details: average activity calculated from Table II
Description: (§2) The following bacterial strains were utilized: Escherichia coli UB1005 (wt) and its antibiotic supersusceptible derivative DC2 (Clark, 1984); Excherichia coli SC9251 and its polymixin B rasistant mutant pmrA SC9252 (Peterson, et al., 1987) Pseudomonas aeruginosa H187 (wt) (Angus, et al., 1987) and its antibiotic-sensitive derivative H188 (Zimmerman, W, Antimicrob. Agents Chemother. 18: 94-100, 1980); methicillin sensitive Staphylococcus aureus K147 (Kreiswirth, et al., 1983); Staphylococcus aureus SAP0017, a methicillin resistant clinical isolate from Dr. A. Chow (University of British Columia); Bacillus subtilis, an environmental wt lab strain. Enterococcus faecalis are ATCC 29212 cells and Staphylococcus epidermidis was a clinical isolate from Dr. D. Speert (University of British Columbia). Antifungal activity was tested using a clinical lab isolate of Candida albicans. Salmonella typhinurium C57 and C610 (Fields, P.I., et al., Science 243: 1059-1062 (1989) Corynebacterium xerosis was an environmental isolate (University of British Columbia).
(§3) It is now apparent that agar-based assays severely underestimate antifungal activity as well as activity against gram negative microorganisms (Kondejewski, et al., 1996). Consequently, in the studies reported herein, a liquid-broth method was used to measure the antibiotic properties of the peptides. […] Briefly, cells were grown overnight at 37° C. in LB and diluted in the same medium. Serial dilutions of antibiotics were added to the microtitre plates in a volume of 100 μL followed by 10 μL of bacteria to give a final inoculum of 5×10^5 CFU/mL. Plates were incubated at 37° C. overnight and MICs determined as the lowest antibiotic concentration that inhibited growth.
(§4) The results from antimicrobial and hemolytic assays are combined to provide a “Therapeutic Index” (TI) for each peptide with respect to individual microorganisms. As reported herein, the TI is calculated as the hemolytic activity divided by the antimicrobial activity. The TI thus is a measure of specificity of the particular peptide for microbial membranes as opposed to human blood cell membranes. In the present studies, antimicrobial activities are reported as minimum inhibitory concentrations (MIC)—the lowest concentration of peptide (μg/ml) found to inhibit growth of the particular microbe. Hemolytic activity is reported as the concentration of peptide that effected complete lysis of blood cells after four hours. Thus, in the context of the present invention high TI values indicate microbial specificity and relative lack of toxicity.

E. coli SC9252 = assay: MIC, liquid-broth microtitre dilution; format: cell-based, Escherichia coli; details: unit from Table 10
Description: as §2, §3

E. coli SC9251 = assay: MIC, liquid-broth microtitre dilution; format: cell-based, Escherichia coli; details: unit from Table 10
Description: as §2, §3

P. aeruginosa H188 = format: cell-based, Pseudomonas aeruginosa; details: for Antibiotic activity (Table 11, ring analogs): P. aeruginosa H188, unit from Table 10; for Minimum Inhibitory Concentration (activity): H188
Procedure, shortened: (§5)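 Antimicrobial activity is measured by a liquid-broth assay in LB at 37 °C overnight, starting from 5×10^5 CFU/mL. Values are minimal inhibitory concentrations, i.e. the lowest concentration that stops growth.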

human erythrocytes = assay: Hemolytic activity; format: cell-based
Method: Serial dilutions of the peptides in saline were prepared in round bottom microtitre plates using 100 μL volumes. Red blood cells were diluted with saline to 1/25 packed volume of cells and 50 μL added to each well. Plates were incubated with rocking at 37° C., and the concentration required for complete lysis determined visually after 4 h.

[1] = Displacement of dansyl-polymyxin from LPS; format: binding, P. aeruginosa
Procedure, shortened: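 Peptides titrated into 3 μg/mL P. aeruginosa LPS with 2.5 μM dansyl-polymyxin (~90% site saturation) in 5 mM sodium HEPES, pH 7.0; fluorescence decrease recorded. I50 (50% probe displacement) taken from the x-intercept of a double-reciprocal plot of percent inhibition versus inhibitor concentration.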

E. coli UB1005 = format: cell-based, Escherichia coli; details: for Antibiotic activity (Table 11, ring analogs): E. coli UB1005, unit from Table 10; for Minimum Inhibitory Concentration (activity): UB1005
Procedure, shortened: as §5

[2] = system: gram negative microorganisms; format: cell-based; details: for Antibiotic activity, gram-negative: average activity calculated from Table II
Description: as §2, §3, §4

[3] = system: gram positive microorganisms; format: cell-based; details: average activity calculated from Table II
Description: as §2, §3, §4

E. coli DC2 = format: cell-based, Escherichia coli; details: for Antibiotic activity (Table 11, ring analogs): E. coli DC2, unit from Table 10; for Minimum Inhibitory Concentration (activity): DC2
Procedure, shortened: as §1

C. Albicans = format: cell-based, Candida albicans
Procedure, shortened: (§6)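 Liquid-broth microdilution: overnight LB cultures diluted and added to serial peptide dilutions at final 5×10^5 CFU/mL, incubated overnight at 37 °C. MIC is the lowest concentration inhibiting growth; C. albicans a clinical isolate, S. epidermidis clinical, C. xerosis environmental.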

S. typhinurium C610 = format: cell-based, Salmonella typhinurium
Procedure, shortened: as §5

S. typhinurium C587 = format: cell-based, Salmonella typhinurium
Procedure, shortened: as §5

B. subtilis = format: cell-based, Bacillus subtilis
Procedure, shortened: as §6

S. epidermidis = format: cell-based, Staphylococcus epidermidis
Procedure, shortened: as §6

C. xeroses = format: cell-based, Corynebacterium xerosis
Procedure, shortened: as §6

S. aureus K147 = format: cell-based, Staphylococcus aureus
Procedure, shortened: as §1

S. aureus SAP0017 = format: cell-based, Staphylococcus aureus
Procedure, shortened: as §1

E. faecalis = format: cell-based, Enterococcus faecalis
Procedure, shortened: as §5

[4] = Table 10, read-out: LPS binding activity: peptide concentration to displace 50% of dansyl-polymyxin from LPS
[5] = read-out: LPS binding affinity: peptide concentration to displace 50% of dansyl-polymyxin B from LPS, Tables 1, 4, 7

Row | Compound | Antibiotic activity (Table 11, ring analogs) (P. aeruginosa H187) [μg/ml] | Antibiotic activity, yeast (yeast) [µg/mL] | Antibiotic activity (Table 11, ring analogs) (E. coli SC9252) [μg/ml] | Antibiotic activity (Table 11, ring analogs) (E. coli SC9251) [μg/ml] | Antibiotic activity (Table 11, ring analogs) (P. aeruginosa H188) [μg/ml] | Hemolytic activity (human erythrocytes) [µg/mL] | pIC50 [1, 4] | Antibiotic activity (Table 11, ring analogs) (E. coli UB1005) [μg/ml] | Antibiotic activity, gram-negative [2] [µg/mL] | Antibiotic activity, gram-positive [3] [µg/mL] | Antibiotic activity (Table 11, ring analogs) (E. coli DC2) [μg/ml] | Minimum Inhibitory Concentration (activity) (P. aeruginosa H187) [µg/mL] | Minimum Inhibitory Concentration (activity) (S. typhinurium C610) [µg/mL] | Minimum Inhibitory Concentration (activity) (S. typhinurium C587) [µg/mL] | Minimum Inhibitory Concentration (activity) (P. aeruginosa H188) [µg/mL] | Hemolytic activity: peptide concentration for 100% lysis of human erythrocytes (human erythrocytes) [µg/mL] | pIC50 [1, 5] | Minimum Inhibitory Concentration (activity) (E. coli UB1005) [µg/mL] | Minimum Inhibitory Concentration (activity) (E. coli DC2) [µg/mL] | also measured
1 | CC(C)C[C@@H]1NC(=O)[C@H](CCCN)NC(=O)[C@H](C(C)C)NC(=O)[C@@H]2CCCN2C(=O)[C@@H](Cc2ccccc2)NC(=O)[C@H](CC(C)C)NC(=O)[C@H](CCCN)NC(=O)[C@H](C(C)C)NC(=O)[C@H](CCCN)NC(=O)[C@@H]2CCCN2C(=O)[C@@H](Cc2ccccc2)NC(=O)[C@H](CCCN)NC1=O [GS12FO, FPVOLOFPOVOL] (cyclo(L[Orn][dF]P[Orn]V[Orn]L[dF]PV[Orn])) | 50 | 16 | 9 | 6 | 5 | 160 | 3.98 | 22 | 16 | 120 | 5 | – | – | – | – | – | – | – | – | –
2 | CC(C)C[C@@H]1NC(=O)[C@H](CCCN)NC(=O)[C@H](CC(C)C)NC(=O)[C@@H]2CCCN2C(=O)[C@@H](Cc2ccccc2)NC(=O)[C@H](CC(C)C)NC(=O)[C@H](CCCN)NC(=O)[C@H](CC(C)C)NC(=O)[C@H](CCCN)NC(=O)[C@@H]2CCCN2C(=O)[C@@H](Cc2ccccc2)NC(=O)[C@H](CCCN)NC1=O [GS12FO/LL, FPLOLOFPOLOL] (cyclo(L[Orn]L[Orn][dF]P[Orn]L[Orn]L[dF]P)) | 63 | 16 | 9 | 8 | 8 | 170 | 4.36 | 16 | 18 | 42 | 5 | – | – | – | – | – | – | – | – | –
3 | CC(C)C[C@@H]1NC(=O)[C@H](CCCCN)NC(=O)[C@H](C(C)C)NC(=O)[C@@H]2CCCN2C(=O)[C@@H](Cc2ccccc2)NC(=O)[C@H](CC(C)C)NC(=O)[C@H](CCCCN)NC(=O)[C@H](C(C)C)NC(=O)[C@H](CCCCN)NC(=O)[C@@H]2CCCN2C(=O)[C@@H](Cc2ccccc2)NC(=O)[C@H](CCCCN)NC1=O [GS12F] | 38 | 13 | 14 | 11 | 8 | 400 | 3.90 | 17 | 16 | 110 | 9 | – | – | – | – | – | – | – | – | –
4 | CC(C)C[C@@H]1NC(=O)[C@H](CCCN)NC(=O)[C@H](C(C)C)NC(=O)[C@@H]2CCCN2C(=O)[C@@H](Cc2ccccc2)NC(=O)[C@H](CC(C)C)NC(=O)[C@H](CCCN)NC(=O)[C@H](C(C)C)NC(=O)[C@@H]2CCCN2C(=O)[C@@H](Cc2ccccc2)NC1=O [GS, cyclo(Val-Orn-Leu-D-Phe-Pro)2, reference compound] (cyclo(V[Orn]L[dF]PV[Orn]L[dF]P)) | 25 | – | 5 | 13 | 16 | – | – | 19 | – | – | 9 | 25 | 9 | 18 | 6.2 | 12.5 | 3.53 | 9 | 3.1 | Minimum Inhibitory Concentration (activity) (C. Albicans; C. Albicans): 6.2 µg/mL; MIC against gram-negative organisms, particularly E. coli and P. aeruginosa [2]: 3 to 12.5 µg/mL
5 | CC(C)C[C@@H]1NC(=O)[C@H](CCCCN)NC(=O)[C@H](C(C)C)NC(=O)[C@@H]2CCCN2C(=O)[C@@H](Cc2ccccc2)NC(=O)[C@H](CC(C)C)NC(=O)[C@H](CCCCN)NC(=O)[C@H](C(C)C)NC(=O)[C@H](CCCCN)NC(=O)[C@H](CC(C)C)NC(=O)[C@@H]2CCCN2C(=O)[C@@H](Cc2ccccc2)NC(=O)[C@H](C(C)C)NC(=O)[C@@H](CCCCN)NC1=O [Y2/F2] | – | – | – | – | – | – | – | – | – | – | – | 17 | 3.1 | 9 | 3.1 | 40 | 4.23 | 6.2 | 1.5 | Minimum Inhibitory Concentration (activity) (B. subtilis): 12.5 µg/mL; Minimum Inhibitory Concentration (activity) (S. epidermidis): 3.1 µg/mL; Minimum Inhibitory Concentration (activity) (C. Albicans): 3.1 µg/mL; Minimum Inhibitory Concentration (activity) (C. xeroses): 1.5 µg/mL; Minimum Inhibitory Concentration (activity) (S. aureus K147): 12.5 µg/mL; Minimum Inhibitory Concentration (activity) (S. aureus SAP0017): 9 µg/mL; Minimum Inhibitory Concentration (activity) (E. faecalis): 6.2 µg/mL
